Laboratory results published in paper PMC9828244, “Molecular and functional characterization of an evolutionarily conserved CREB‐binding protein in the Lymnaea CNS” (The FASEB Journal, 2022).

Target: T1, LymCBP HAT domain (Lymnaea stagnalis, UniProt E2QC33)
T1 construct: HAT (catalytic) domain, R1240 to K1641 of LymCBP, His6-tag, pET28a(+), expressed in E. coli Rosetta-gami 2(DE3); cDNA from Lymnaea CNS; Ni-NTA and cation exchange
Assay: autoradiography of […]-acetylated histone H1 after SDS-PAGE
Type: biochemical
Settings: pH 8.0, 30 °C, 4 h

[1] = 50 uM inhibitor, calf thymus histone H1, [14C]-acetyl-CoA

T1 sequence (E2QC33 entry or part of it): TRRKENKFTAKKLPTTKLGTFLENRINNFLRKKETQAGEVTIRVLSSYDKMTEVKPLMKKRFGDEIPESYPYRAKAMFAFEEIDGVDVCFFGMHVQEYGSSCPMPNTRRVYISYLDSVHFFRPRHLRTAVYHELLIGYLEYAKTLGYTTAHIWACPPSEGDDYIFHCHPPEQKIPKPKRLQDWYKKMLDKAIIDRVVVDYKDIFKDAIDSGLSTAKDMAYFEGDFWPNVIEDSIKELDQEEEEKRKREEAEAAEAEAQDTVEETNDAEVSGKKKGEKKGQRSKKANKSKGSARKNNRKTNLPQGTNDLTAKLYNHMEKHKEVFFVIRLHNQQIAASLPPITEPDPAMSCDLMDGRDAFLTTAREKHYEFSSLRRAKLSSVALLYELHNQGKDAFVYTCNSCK

CC(=O)SCCNC(=O)CCNC(=O)[C@H](O)C(C)(C)COP(=O)(O)OP(=O)(O)OC[C@H]1O[C@@H](n2cnc3c(N)ncnc32)[C@H](O)[C@@H]1OP(=O)(O)O [[14C]-acetyl-CoA]
autoradiography of [14C]-acetylated histone H1 after SDS-PAGE (calf thymus histone H1 as acetyl acceptor, no inhibitor, labelled compound): in the absence of HAT inhibitors in the incubation solution, LymCBP acetylated histone H1

CCCCCCCCCCCCCCCc1cccc(O)c1C(=O)O [anacardic acid]
autoradiography of [14C]-acetylated histone H1 after SDS-PAGE [1]: In the presence of HAT inhibitors in the incubation solution, however, H1 acetylation signals were eliminated

COc1cc(/C=C/C(=O)CC(=O)/C=C/c2ccc(O)c(OC)c2)ccc1O [curcumin]
autoradiography of [14C]-acetylated histone H1 after SDS-PAGE [1]: In the presence of HAT inhibitors in the incubation solution, however, H1 acetylation signals were eliminated

C=C(C)[C@@H](CC=C(C)C)C[C@@]12C[C@@H](CC=C(C)C)C(C)(C)[C@@](CC=C(C)C)(C(=O)C(=C(O)c3ccc(O)c(O)c3)C1=O)C2=O [garcinol]
autoradiography of [14C]-acetylated histone H1 after SDS-PAGE [1]: In the presence of HAT inhibitors in the incubation solution, however, H1 acetylation signals were eliminated
